# From patent publication US12274774B2, “Cosmetic composition derived from natural products for improving skin health” (SEOUL NATIONAL UNIVERSITY R&DB FOUNDATION, priority 2021, dated 2025)
# What was measured:
# [1] = tested on: Human-derived normal fibroblasts; experiment: Cell proliferation efficacy (MTT method); assay type: cell-based; settings: 10 μM, 72 hours culture, FIG. 1
# Procedure: • 1) Human-derived normal fibroblasts were cultured. • 2) The cells were inoculated in an appropriate number, and after 24 hours, starvation was performed for 24 hours. • 3) The cells were cultured for 72 hours in media treated with samples at different concentrations, respectively. • 4) Cell activity was measured and analyzed by the MTT method.
# Propionibacterium acnes = experiment: Anti-acne efficacy (antibacterial efficacy); assay type: cell-based; settings: 20 μM to 200 μM, 72 hours anaerobic culture, FIG. 7
# Procedure: • 1) Propionibacterium acnes, anaerobic acne bacteria, were cultured under anaerobic culture conditions. • 2) The strain was prepared by adjusting the turbidity to McFarland standard NO. 1, followed by dilution of 1/20 in a liquid culture medium. • 3) Liquid nutrient media were treated with samples at different concentrations, respectively. • 4) After 100 μL of each of the liquid nutrient media treated with the samples was dispensed, 10 μL of the prepared strain was inoculated to each medium. • 5) After the strain was cultured for 72 hours under anaerobic culture conditions, the number of bacteria was measured and analyzed.
# B16F10 cells [2] = experiment: Whitening efficacy: inhibition of B16F10 intracellular melanin synthesis; assay type: cell-based; settings: 10 μM to 50 μM, α-MSH treated B16F10 cells, 72 hours, FIG. 3
# Procedure: • 1) B16F10 cells were cultured. • 2) The cells were inoculated in an appropriate number, and after 24 hours, all groups except blank were treated with α-MSH and samples, respectively. • 3) The cells were cultured for 72 hours in culture media treated with respective samples. • 4) The cells were lysed, the supernatant was separated, and the absorbance value of the supernatant was measured. • 5) The amount of protein in each supernatant was measured and analyzed by the BCA method. • 6) The melanin synthesis value measured in the supernatant was corrected into the amount of protein to calculate the amount of melanin synthesis per unit cell.
# [3] = tested on: Human-derived normal fibroblasts; experiment: Wrinkle improvement efficacy (collagen synthesis); assay type: cell-based; settings: 10 μM to 20 μM, UV-irradiated fibroblasts, FIG. 6
# Procedure: • 1) Human-derived normal fibroblasts were inoculated at 2×10^5/6 well and cultured. • 2) Culture was performed for 1 day under starvation conditions. • 3) The cells were treated with samples at different concentrations, respectively, and cultured for 24 hours. • 4) The cells were washed and then irradiated with UV, followed by culture for 48 hours. • 5) The amount of collagen expression in the cell culture medium was measured and analyzed.
# B16F10 cells [4] = experiment: Whitening efficacy: inhibition of B16F10 extracellular melanin synthesis; assay type: cell-based; settings: 10 μM to 50 μM, α-MSH treated B16F10 cells, 72 hours, culture media, FIG. 4
# Procedure: • 1) B16F10 cells were cultured. • 2) The cells were inoculated in an appropriate number, and after 24 hours, all groups except blank were treated with α-MSH and samples, respectively. • 3) The cells were cultured for 72 hours in culture media treated with respective samples. • 4) The absorbance values of the cell culture media were measured. • 5) The cells were lysed, the supernatant was separated, and the amount of protein was measured by the BCA method to correct the amount of melanin synthesis. • 6) The measured melanin synthesis value was corrected into the amount of protein to calculate the amount of melanin synthesis per unit cell.
# [5] = Measurement of absorbance (spectrophotometer); assay type: physicochemical; settings: 10 μM to 50 μM in organic solvent; UV-A (320 nm to 400 nm), UV-B (280 nm to 320 nm), UV-C (200 nm to 280 nm), FIG. 8
# Procedure: • 1) Resveratrone was dissolved in an organic solvent at a concentration of 10 μM to 50 μM. • 2) The absorbance of resveratrone was measured by using a spectrophotometer.
# [6] = Antioxidant efficacy (DPPH assay); assay type: biochemical; settings: 1 μM to 50 μM, absorbance at 517 nm, FIG. 2
# Procedure: • 1) 115 μL of 70% ethanol was dispensed to each of 96 wells. • 2) 5 μL of each sample and positive control was dispensed, and the absorbance was measured at 517 nm to measure the absorbance before the reaction. • 3) 80 μL of a DPPH solution was dispensed. • 4) After the reaction, the absorbance was measured at 517 nm, and the result was analyzed by using the absorbance values before and after the reaction.
# [7] = molecular target: T1, tyrosinase (melanin synthase) (Homo sapiens, UniProt P14679); experiment: Whitening efficacy: inhibition of tyrosinase activity in pigment cells; assay type: cell-based; settings: 1 μM to 50 μM, human-derived normal pigment cells, 72 hours, FIG. 5
# T1 construct: The cells were lysed, the supernatant was separated; endogenous in cells; host or cells: human-derived normal pigment cells
# T1 sequence (P14679 19-529): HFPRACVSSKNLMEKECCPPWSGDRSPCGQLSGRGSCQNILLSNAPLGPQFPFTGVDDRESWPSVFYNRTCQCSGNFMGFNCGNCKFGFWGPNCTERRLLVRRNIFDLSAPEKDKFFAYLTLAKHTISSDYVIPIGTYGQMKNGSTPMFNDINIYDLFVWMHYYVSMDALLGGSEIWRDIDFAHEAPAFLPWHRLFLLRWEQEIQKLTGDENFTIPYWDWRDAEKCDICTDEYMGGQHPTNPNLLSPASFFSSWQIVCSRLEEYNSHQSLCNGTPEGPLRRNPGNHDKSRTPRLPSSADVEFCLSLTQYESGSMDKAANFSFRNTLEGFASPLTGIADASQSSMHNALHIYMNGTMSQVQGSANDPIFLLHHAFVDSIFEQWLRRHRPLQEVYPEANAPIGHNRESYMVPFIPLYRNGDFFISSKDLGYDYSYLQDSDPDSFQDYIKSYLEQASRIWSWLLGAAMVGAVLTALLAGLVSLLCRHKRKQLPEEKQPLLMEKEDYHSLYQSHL
# Procedure: • 1) Human-derived normal pigment cells were inoculated in an appropriate number and cultured for 1 day. • 2) The culture medium was replaced with culture media treated with respective samples and cultured for 72 hours. • 3) The cells were lysed, the supernatant was separated, and the absorbance value of the supernatant was measured at 475 nm at 30 minute intervals while the supernatant was allowed to react with dopa, a reactant, at 37° C. • 4) The amount of protein in the cell lysis supernatant was measured by the BCA method to correct a tyrosinase (melanin synthase) measurement value.
smiles,measurement,setting,value
"CC(=O)/C=C/c1ccc2cc(O)cc(O)c2c1 [resveratrone, Resveratrone]",increase in number of cells,[1],20%
same,inhibition of bacterial growth,Propionibacterium acnes,inhibition of bacterial growth was confirmed
same,inhibition of intracellular melanin synthesis,B16F10 cells [2],inhibition of melanin synthesis was confirmed
same,increase in collagen synthesis,[3],increase in collagen synthesis was confirmed
same,inhibition of extracellular melanin synthesis,B16F10 cells [4],inhibition of melanin synthesis was confirmed
same,UV absorption,[5],absorption was confirmed in all UV regions
same,radical scavenging ability,[6],radical scavenging ability was confirmed
same,inhibition of tyrosinase activity,[7],inhibition of tyrosinase activity was confirmed
